# Source: PubChem BioAssay AID180 (DTP/NCI, 2004)
# Several values for one entry are separate records, joined by “and”; a condition that tells them apart may be missing. Equal entries are not always repeated.
# Tested on: BDF1 mice, Adenocarcinoma 755 s.c., tumor weight T/C
# Assay: NCI In Vivo Anticancer Drug Screen. Data for tumor model Adenocarcinoma 755 (subcutaneous) in B6D2F1 (BDF1) mice
# Conditions: endpoint: mean tumor weight, higher = larger tumour
# Outline: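 In vivo antitumor screen on a transplantable tumor line. Result equals the measure in compound-treated animals divided by the same measure in vehicle controls.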
smiles,measurement,setting,value
CCN(CC)CCC(=O)N1CCN(C(=O)CCN(CC)CC)CC1,T/C,"dose: 3.8 mg/kg/injection, schedule: Q01DX011 (ip), vehicle: methylcellulose (MC)",110 % of control
same,T/C,"dose: 7.5 mg/kg/injection, schedule: Q01DX011 (ip), vehicle: methylcellulose (MC)",113 % of control
same,T/C,"dose: 15.0 mg/kg/injection, schedule: Q01DX011 (ip), vehicle: methylcellulose (MC)",71 % of control
same,T/C,"dose: 30.0 mg/kg/injection, schedule: Q01DX011 (ip), vehicle: methylcellulose (MC)",79 % of control
same,T/C,"dose: 30.0 mg/kg/injection, schedule: Q01DX011 (ip), vehicle: saline",119 % of control
same,T/C,"dose: 60.0 mg/kg/injection, schedule: Q01DX011 (ip), vehicle: saline",105 % of control
CCCCn1cnc2c(SCc3ccccc3)nc(N)nc21,T/C,"dose: 7.81 mg/kg/injection, schedule: Q01DX011 (ip), vehicle: methylcellulose (MC)",31 % of control
same,T/C,"dose: 15.62 mg/kg/injection, schedule: Q01DX011 (ip), vehicle: methylcellulose (MC)",2 % of control
same,T/C,"dose: 31.25 mg/kg/injection, schedule: Q01DX011 (ip), vehicle: methylcellulose (MC)",1 % of control
Cc1cc(N(CCCl)CCCl)ccc1N=Nc1ccccc1C(=O)O,T/C,"dose: 0.44 mg/kg/injection, schedule: Q01DX011 (ip), vehicle: carboxymethylcellulose (CMC)",115 % of control
same,T/C,"dose: 0.87 mg/kg/injection, schedule: Q01DX011 (ip), vehicle: carboxymethylcellulose (CMC)",39 % of control
same,T/C,"dose: 1.75 mg/kg/injection, schedule: Q01DX011 (ip), vehicle: carboxymethylcellulose (CMC)",53 % of control
same,T/C,"dose: 3.5 mg/kg/injection, schedule: Q01DX011 (ip), vehicle: carboxymethylcellulose (CMC)",20 % of control
C[C@]1(O)CC[C@H]2[C@@H]3CC[C@@H]4C[C@H](O)CC[C@]4(C)[C@@]3(F)[C@@H](O)C[C@@]21C,T/C,"dose: 25.0 mg/kg/injection, schedule: Q01DX011 (sc), vehicle: steriod suspending solution",73 % of control
same,T/C,"dose: 200.0 mg/kg/injection, schedule: Q01DX011 (sc), vehicle: steriod suspending solution",90 % of control
same,T/C,"dose: 400.0 mg/kg/injection, schedule: Q01DX011 (sc), vehicle: steriod suspending solution",87 % of control
Ic1ncnc2c1ncn2C1CCCCO1 (stereo not drawn),T/C,"dose: 5.0 mg/kg/injection, schedule: Q01DX011 (ip), vehicle: other",123 % of control
same,T/C,"dose: 10.0 mg/kg/injection, schedule: Q01DX011 (ip), vehicle: other",47 % of control
same,T/C,"dose: 15.0 mg/kg/injection, schedule: Q01DX011 (ip), vehicle: other",94 % of control
same,T/C,"dose: 20.0 mg/kg/injection, schedule: Q01DX011 (ip), vehicle: other",68 % of control and 70 % of control
same,T/C,"dose: 30.0 mg/kg/injection, schedule: Q01DX011 (ip), vehicle: other",100 % of control and 76 % of control
same,T/C,"dose: 31.0 mg/kg/injection, schedule: Q01DX011 (ip), vehicle: other",14 % of control
same,T/C,"dose: 62.0 mg/kg/injection, schedule: Q01DX011 (ip), vehicle: other",14 % of control
CC(C)n1cnc2c(Cl)ncnc21,T/C,"dose: 4.0 mg/kg/injection, schedule: Q01DX011 (ip), vehicle: carboxymethylcellulose (CMC)",101 % of control
same,T/C,"dose: 8.0 mg/kg/injection, schedule: Q01DX011 (ip), vehicle: carboxymethylcellulose (CMC)",115 % of control
same,T/C,"dose: 16.0 mg/kg/injection, schedule: Q01DX011 (ip), vehicle: carboxymethylcellulose (CMC)",92 % of control
same,T/C,"dose: 62.0 mg/kg/injection, schedule: Q01DX011 (ip), vehicle: carboxymethylcellulose (CMC)",4 % of control and 11 % of control
same,T/C,"dose: 125.0 mg/kg/injection, schedule: Q01DX011 (ip), vehicle: carboxymethylcellulose (CMC)",5 % of control and 8 % of control
same,T/C,"dose: 250.0 mg/kg/injection, schedule: Q01DX011 (ip), vehicle: carboxymethylcellulose (CMC)",8 % of control
CC(=O)OCC1OC(n2cnc3c(N)ncnc32)CC1OC(C)=O (stereo not drawn),T/C,"dose: 30.0 mg/kg/injection, schedule: Q01DX011 (ip), vehicle: carboxymethylcellulose (CMC)",55 % of control and 68 % of control
same,T/C,"dose: 120.0 mg/kg/injection, schedule: Q01DX011 (ip), vehicle: carboxymethylcellulose (CMC)",97 % of control and 111 % of control
same,T/C,"dose: 240.0 mg/kg/injection, schedule: Q01DX011 (ip), vehicle: carboxymethylcellulose (CMC)",108 % of control and 109 % of control
Cc1ccccc1-c1nc2c(N)nc(N)nc2nc1N,T/C,"dose: 50.5 mg/kg/injection, schedule: Q01DX011 (ip), vehicle: carboxymethylcellulose (CMC)",83 % of control
same,T/C,"dose: 57.0 mg/kg/injection, schedule: Q01DX011 (ip), vehicle: methylcellulose (MC)",54 % of control and 75 % of control
same,T/C,"dose: 101.0 mg/kg/injection, schedule: Q01DX011 (ip), vehicle: carboxymethylcellulose (CMC)",75 % of control
same,T/C,"dose: 113.0 mg/kg/injection, schedule: Q01DX011 (ip), vehicle: methylcellulose (MC)",48 % of control and 52 % of control
same,T/C,"dose: 202.0 mg/kg/injection, schedule: Q01DX011 (ip), vehicle: carboxymethylcellulose (CMC)",68 % of control
same,T/C,"dose: 225.0 mg/kg/injection, schedule: Q01DX011 (ip), vehicle: methylcellulose (MC)",82 % of control
